The values that follow come from patent US10993919B2, “Chondroprotective nanoparticles for the treatment of osteoarthritis” (University of Florida Research Foundation, Inc., priority 2016, dated 2021).

In the assay the test system is fat pad-derived MSCs. Briefly: MSC migration in Boyden chamber plates. The format is cell-based. As to conditions: MSCs isolated from the fat pad of the joint; preliminary. As for the experimental part: To determine if there are inherent differences in the migratory activity of the different MSC populations, migration in response to serum is first evaluated using 96-well Boyden chamber plates. To simulate OA conditions, MSC migration is evaluated in response to IL-1β (10 ng/mL and 50 ng/mL), conditioned medium from the established OA cartilage explants, and conditioned medium from normal explants. Results from each group are compared with a positive control of media with 10% serum to determine if the experimental conditions increase or decrease migration of MSCs.
The response of MSCs to chondroinductive agents is evaluated, specifically platelet-derived growth factor (PDGF-BB) and kartogenin (KGN), which were selected based on their pleiotropic effects on promoting both migration and chondrogenesis of MSCs without adverse effects in the OA joint. PDGF-BB exerts chemotactic effects on bone marrow-derived MSCs, and facilitates new cartilage formation in the presence of IL-1β (Montaseri, A., et al. PloS one 6:e28663 (2011)). […] Kartogenin has been implicated in stimulating MSC recruitment in vivo, however, there are no reported migration studies with KGN, and therefore, the underlying mechanism for KGN-mediated recruitment is largely unknown. […]

For “IL-1β: predominant pro-inflammatory cytokine in OA”, the MSC migration result is on record as “may indeed inhibit migration”.
